The target in test [1] is Clic1 (Homo sapiens, UniProt O00299). The conditions noted are these: cited from earlier work.
The target of test [2] is T1, Clic1 (Mus musculus, UniProt Q9Z1Q5). As to the kind of experiment: Fasting and re-feeding model: food intake and hypothalamic neuropeptide expression after acute IAA94. The class given is in vivo, mice. More on the design: endogenous in cells; host or cells: whole live mice (C57B16 WT in the 7-day study); hypothalamus discussed as the site of action. The method, then:
To determine whether the modulation of Clic1 directly affected food intake, mice were treated with a specific Clic1 inhibitor, IAA94^11. Mice were fasted for 23 hours and then treated with either vehicle or IAA94 (50 mg/kg IP) and then re-fed for 1 hour. […] No changes in AgRP or Cart expression were detected.
FIGS. 1A-1C show the role of Clic1 in food intake.
FIGS. 5A-5C show acute studies in which Clic1 inhibition decreases food intake. HET/KO mice are viable, fertile and appear normal. Floxed mice are available at PMID: 20049953 Sydney. […] Male mice were injected with IAA94 (50 mg/kg) or vehicle and then refed. IAA94 (indanyloxyacetic acid 94) is a Clic1 inhibitor that blocks channels and has enzymatic properties.

In test [3] the target is T1, Clic1. In words: Chronic IAA94 treatment in diet-induced obese mice, 23 days, alone or with Lira. The class given is in vivo. More on the design: endogenous in cells; host or cells: whole live mice (C57B16 WT in the 7-day study); hypothalamus discussed as the site of action. The conditions noted are these: daily injections, FIG. 8A. Here is the method:
FIGS. 8A-8I show another study on chronic IAA94 treatment. Diet-induced obese mice (fed a high fat diet for 6 weeks) received daily injections of either i) vehicle, ii) IAA94—10 mg/kg, iii) IAA94—50 mg/kg, iv) Lira, or v) combination of Lira+IAA94 (50 mg/kg). Daily food intake and body weight were monitored. Sacrifices were performed after 23 days.

Test [4] addresses T1, Clic1. As to the kind of experiment: Chronic Clic1 inhibition in diet-induced obese high fat diet-fed mice, 7 days. The settings on record: IAA94 50 mg/kg IP daily. More on the design: endogenous in cells; host or cells: whole live mice (C57B16 WT in the 7-day study); hypothalamus discussed as the site of action. In kind it is in vivo, C57B16 WT mice. Here is the method: Diet-induced obese mice (fed high fat diet for 6 weeks) were injected with IAA94 (50 mg/kg, IP, daily) or vehicle. Their daily food intake and body weight were monitored. Sacrifices were performed on day 7. […] On day 7 mice were fasted for 5 hours and then treated with IAA94 or VEH and then blood collected one hour later for measurement of leptin (FIG. 7C) GDF-15 (FIG. 7D) insulin (FIG. 7E), and glucose (FIG. 7F). FIGS. 7G-7J show hypothalamic neuropeptide levels determined by quantitative PCR detection. In FIGS. 7A-7B, P<0.05 repeated measures one-way ANOVA with Sidak's multiple comparisons test. In FIGS. 7C-7J, P<0.05 students t-test.

Setting [5] is: mice fasted 23 hours, IAA94 50 mg/kg IP, re-fed for 1 hour.

Molecules are shown by their SMILES.

For `CN(C)C(=N)NC(=N)N` [metformin, N,N-dimethylbiguanide], the “inhibition of Clic1” value on Clic1 [1] is given as “inhibits Clic1”.
In the case of `C[C@]1(C2CCCC2)Cc2cc(OCC(=O)O)c(Cl)c(Cl)c2C1=O` [IAA94, R(+)-[(6,7-Dichloro-2-cyclopentyl-2,3-dihydro-2-methyl-1-oxo-1H-inden-5-yl)-oxy]acetic acid], on Clic1 [2] (IAA94 50 mg/kg, FIG. 1C), the “hyperphagia in response to refeeding” value is listed as “decreased hyperphagia”. Besides, the “food intake versus amount of IAA94 administered” value at Clic1 [2] (male mice, fasting and re-feeding model, FIG. 5C) was “dose dependent”. Further, at Clic1 [2] (setting [5]), the “AgRP expression (hypothalamic)” value is given as “No changes”, the “Cart expression (hypothalamic)” value is “No changes”, the “Pome expression (hypothalamic)” value was “increased” and the “hypothalamic levels of Npy” value is listed as “significant reduction”. The “reduction of food intake compared with vehicle treated mice” value at Clic1 [2] (setting [5]) is reported as approximately 50%. The “weight loss on chronic treatment” value at Clic1 [3] is “significant weight loss”. At Clic1 [4] (7 days), the food intake result is given as “significant reduction in food intake”. On Clic1 [4] (one week), the “reduction of body weight” value is reported as approximately 12%.

The values above are taken from patent US12303479B2, “Chloride intracellular channel 1 for regulation of food intake” (The Regents of the University of California, priority 2019, dated 2025).
